Measured values reported in patent publication US10316017B2, “COT modulators and methods of use thereof” (Gilead Sciences, Inc., priority 2015, dated 2019).
Where two headings read alike, the source gives them in different places.

Tests used:
[1] = test system: TNFα production in LPS-stimulated human monocytes; test: Cot Monocyte TNFα Cell Based Assay; conditions: Homo sapiens, Monocyte, read-out: EC50 TNF
Procedure, shortened: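 Human monocytes (5,000 cells/well) pretreated with compound for 1 hour at 37° C (0.5% DMSO), then stimulated with 50 pg/ml LPS for 4 hours. Total TNFα measured by TR-FRET after overnight antibody incubation at room temp, expressed as percent of control between unstimulated and stimulated cells.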

[2] = biological target: T1, human Cot catalytic domain (30-397 amino acids) (Homo sapiens, UniProt P41279); test: High Throughput Cot Biochemical Assay (KinEASE TR-FRET); conditions: read-out: IC50 HTRF
T1 construct: Purified recombinant human Cot catalytic domain (30-397 amino acids) was purchased from Cama Biosciences; purchased Cama Biosciences (so in the source)
T1 sequence (P41279 30-397): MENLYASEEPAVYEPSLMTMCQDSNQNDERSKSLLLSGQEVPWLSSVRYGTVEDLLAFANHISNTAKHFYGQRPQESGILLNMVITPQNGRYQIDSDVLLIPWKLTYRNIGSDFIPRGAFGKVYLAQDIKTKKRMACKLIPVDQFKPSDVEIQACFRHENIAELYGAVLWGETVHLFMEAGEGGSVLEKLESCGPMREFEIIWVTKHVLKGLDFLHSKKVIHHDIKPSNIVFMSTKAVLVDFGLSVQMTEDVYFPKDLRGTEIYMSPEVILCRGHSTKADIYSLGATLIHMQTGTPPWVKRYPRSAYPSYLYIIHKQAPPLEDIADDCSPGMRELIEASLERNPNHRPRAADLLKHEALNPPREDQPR
Procedure, shortened: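 Recombinant human Cot catalytic domain (aa 30-397), 5 nM, with 1 μM STK3 peptide and 400 μM ATP in MOPS pH 7.0 buffer with MgOAc, DTT, BSA, NP-40, glycerol, 0.1% DMSO. Phosphorylated XL665-peptide detected by Eu-[…] antibody TR-FRET.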

[3] = TNFα in LPS-stimulated human monocytes
[4] = Cot KinEASE TR-FRET (HTRF) biochemical assay, 400 μM ATP
[5] = Cot biochemical HTRF (KinEASE TR-FRET) assay
[6] = LPS-stimulated human monocytes, TNFα TR-FRET
[7] = Cot KinEASE TR-FRET, 400 μM ATP

EC50 [1, 3] [nM] | IC50 [2, 4] [nM] | IC50 [2, 5] [nM] | EC50 [1, 6] [nM] | IC50 [2, 7] [nM] | Compound
108 | 9 |  |  |  | CC(C)(C)CNc1c(C#N)cnc2c(C#N)cc(N[C@@H](c3ccc(Cl)cc3)c3cn(C4CC4)nn3)cc12 [Example 77, (S)-6-(((4-chlorophenyl) (1-cyclopropyl-1H-1,2,3-triazol-4-yl)methyl)amino)-4-(neopentylamino) quinoline-3,8-dicarbonitrile]
76 |  | 3 |  |  | CC(C)n1cc([C@@H](Nc2cc(Cl)c3ncc(C#N)c(Nc4ccc(F)c(Cl)c4)c3c2)c2cccc(N(C)S(C)(=O)=O)c2)nn1 [Example 567, (S)-N-(3-(((8-chloro-4-((3-chloro-4-fluorophenyl)amino)-3-cyanoquinolin-6-yl)amino)(1-isopropyl-1H-1,2,3-triazol-4-yl)methyl)phenyl)-N-methylmethanesulfonamide]
> 50000 |  | 784 |  |  | CC[C@@H](Nc1c(C#N)cnc2c(Cl)cc(N[C@H](c3ccccc3)c3c[nH]nn3)cc12)c1ccccc1 [Example 626, 8-chloro-6-(((R)-phenyl(1H-1,2,3-triazol-4-yl)methyl)amino)-4-(((R)-1-phenylpropyl)amino) quinoline-3-carbonitrile]
 |  |  | 225 | 14 | [2H][C@@](Nc1cc(C#N)c2ncc(C#N)c(NCC(C)(C)C)c2c1)(c1cn(C(C)(C)C)nn1)c1ccccc1Cl [Example 1029, (S)-6-(((1-(tert-butyl)-1H-1,2,3-triazol-4-yl)(2-chlorophenyl)methyl-d)amino)-4-(neopentylamino)quinoline-3,8-dicarbonitrile]
424 | 16 |  |  |  | N#Cc1cnc2c(Cl)cc(N[C@@H](c3cccc(Cl)c3)c3cn(C4CC4)nn3)cc2c1Nc1cnc(F)c(F)c1 [Example 266, (S)-8-chloro-6-(((3-chlorophenyl)(1-cyclopropyl-1H-1,2,3-triazol-4-yl)methyl)amino)-4-((5,6-difluoropyridin-3-yl)amino)quinoline-3-carbonitrile]
 |  |  | 66 | 2 | [2H][C@](Nc1cc(C#N)c2ncc(C#N)c(NCC(C)(C)C)c2c1)(c1cccc(C#N)c1)c1cn(C2(CF)CC2)nn1 [Example 1007, (S)-6-(((3-cyanophenyl)(1-(1-(fluoromethyl)cyclopropyl)-1H-1,2,3-triazol-4-yl)methyl-d)amino)-4-(neopentylamino)quinoline-3,8-dicarbonitrile]
> 10000 | > 10000 |  |  |  | [2H][C@](Nc1cc(Cl)c2ncc(C#N)c(N[C@@H](CO)C(C)(C)C)c2c1)(c1ccc(F)cc1)c1cn(C2CC2)nn1 [Example 186, 8-chloro-6-(((S)-(1-cyclopropyl-1H-1,2,3-triazol-4-yl)(4-fluorophenyl)methyl-d)amino)-4-(((R)-1-hydroxy-3,3-dimethylbutan-2-yl)amino)quinoline-3-carbonitrile]
 |  |  | 103 | 12 | CC(C)(C)CNc1c(C#N)cnc2c(C#N)cc(N[C@@H](c3ccccc3)c3cn(C4(C(F)F)CC4)nn3)cc12 [Example 1064, (S)-6-(((1-(1-(difluoromethyl)cyclopropyl)-1H-1,2,3-triazol-4-yl)(phenyl)methyl)amino)-4-(neopentylamino)quinoline-3,8-dicarbonitrile]
 |  |  | 92 | 4 | [2H][C@@](Nc1cc(C(C)=O)c2ncc(C#N)c(N[C@H](CCC#N)c3ccccc3)c2c1)(c1cn(C2CC2)nn1)c1ccccc1Cl [Example 939, 8-acetyl-6-(((S)-(2-chlorophenyl)(1-cyclopropyl-1H-1,2,3-triazol-4-yl)methyl-d)amino)-4-(((R)-3-cyano-1-phenylpropyl)amino) quinoline-3-carbonitrile]
520 |  | 8 |  |  | N#Cc1cnc2c(Cl)cc(N[C@@H](c3cccc(-c4ncco4)c3)c3c[nH]nn3)cc2c1Nc1cnc(F)c(F)c1 [Example 498, (S)-8-chloro-4-((5,6-difluoropyridin-3-yl)amino)-6-(((3-(oxazol-2-yl)phenyl)(1H-1,2,3-triazol-4-yl)methyl)amino) quinoline-3-carbonitrile]
 |  |  | 22 | 3 | CC(C)(C)CNc1c(C#N)cnc2c(C#N)cc(N[C@H](c3cn(C4(c5ccncc5)CC4)nn3)c3ccccc3Cl)cc12 [Example 1011, (S)-6-(((2-chlorophenyl)(1-(1-(pyridin-4-yl)cyclopropyl)-1H-1,2,3-triazol-4-yl)methyl)amino)-4-(neopentylamino) quinoline-3,8-dicarbonitrile]
> 10000 | 8200 |  |  |  | [2H][C@](Nc1cc(Cl)c2ncc(C#N)c(NN(CC)c3ccccc3)c2c1)(c1ccc(F)cc1)c1cn(C2CC2)nn1 [Example 222, (S)-8-chloro-6-(((1-cyclopropyl-1H-1,2,3-triazol-4-yl)(4-fluorophenyl)methyl-d)amino)-4-(2-ethyl-2-phenylhydrazinyl)quinoline-3-carbonitrile]
338 |  | 11 |  |  | CC[C@@H](Nc1c(C#N)cnc2c(Cl)cc(N[C@H](c3cn(CCF)nn3)c3ccccc3F)cc12)c1ccccc1 [Example 446, 8-chloro-6-(((S)-(1-(2-fluoroethyl)-1H-1,2,3-triazol-4-yl)(2-fluorophenyl)methyl)amino)-4-(((R)-1-phenylpropyl)amino) quinoline-3-carbonitrile]
> 10000 |  | 2700 |  |  | N#Cc1cnc2c(Cl)cc(N[C@@H](c3ccc(F)cc3)c3c[nH]nn3)cc2c1NCC(F)(F)F [Example 443, (S)-8-chloro-6-(((4-fluorophenyl)(1H-1,2,3-triazol-4-yl)methyl)amino)-4-((2,2,2-trifluoroethyl)amino) quinoline-3-carbonitrile]
1260 | 48 |  |  |  | Cc1cc(Nc2c(C#N)cnc3c(Cl)cc(N[C@@H](c4ccc(F)cc4)c4c[nH]nn4)cc23)cnc1F [Example 375, (S)-8-chloro-4-((6-fluoro-5-methylpyridin-3-yl)amino)-6-(((4-fluorophenyl)(1H-1,2,3-triazol-4-yl)methyl)amino) quinoline-3-carbonitrile]
993 | 147 |  |  |  | [2H]C(Nc1cc(Cl)c2ncc(C#N)c(NC3CCCC4CC43)c2c1)(c1ccc(F)cc1)c1cn(C2CC2)nn1 (stereo in doubt) [Example 250, 4-(bicyclo[4.1.0]heptan-2-ylamino)-8-chloro-6-(((S)-(1-cyclopropyl-1H-1,2,3-triazol-4-yl)(4-fluorophenyl)methyl-d)amino)quinoline-3-carbonitrile]
10600 |  | 52 |  |  | CC(C)(C)N1CCC(n2cc([C@@H](Nc3cc(Cl)c4ncc(C#N)c(Nc5cc(F)c(F)cc5F)c4c3)c3ccc(Cl)cc3)nn2)CC1 [Example 651, (S)-6-(((1-(1-(tert-butyl)piperidin-4-yl)-1H-1,2,3-triazol-4-yl)(4-chlorophenyl)methyl)amino)-8-chloro-4-((2,4,5-trifluorophenyl)amino)quinoline-3-carbonitrile]
 |  |  | 119 | 22 | Cc1cc(C#N)ccc1[C@H](Nc1cc(C#N)c2ncc(C#N)c(NCC(C)(C)C)c2c1)c1cn(C2(C(F)(F)F)CC2)nn1 [Example 1140, (S)-6-(((4-cyano-2-methylphenyl)(1-(1-(trifluoromethyl)cyclopropyl)-1H-1,2,3-triazol-4-yl)methyl)amino)-4-(neopentylamino)quinoline-3,8-dicarbonitrile]
